{
  "source": "patent US10632147B2",
  "about": "“Methods and compositions for treating inflammatory disorders” (priority 2007, dated 2020)",
  "key": {"[1]": {"tested_on": "Bacteroides fragilis ATCC #25285", "test": "Microbial Time Kill Assay", "format": "cell-based", "conditions": "150 ppm AFC, 15 second contact time"}, "[2]": {"tested_on": "Enterococcus faecium ATCC #35667", "test": "Microbial Time Kill Assay", "format": "cell-based", "conditions": "150 ppm AFC, 15 second contact time"}, "[3]": {"tested_on": "Haemophilus influenza ATCC #8149", "test": "Microbial Time Kill Assay", "format": "cell-based", "conditions": "150 ppm AFC, 15 second contact time"}, "[4]": {"tested_on": "Klebsiella pneumonia ATCC #4352", "test": "Microbial Time Kill Assay", "format": "cell-based", "conditions": "150 ppm AFC, 15 second contact time"}, "[5]": {"tested_on": "Micrococcus luteus ATCC #10240", "test": "Microbial Time Kill Assay", "format": "cell-based", "conditions": "150 ppm AFC, 15 second contact time"}, "[6]": {"tested_on": "Pseudomonas aeruginosa ATCC #9027", "test": "Microbial Time Kill Assay", "format": "cell-based", "conditions": "150 ppm AFC, 15 second contact time"}, "[7]": {"tested_on": "Staphylococcus epidermidis ATCC #14990", "test": "Microbial Time Kill Assay", "format": "cell-based", "conditions": "150 ppm AFC, 15 second contact time"}, "[8]": {"tested_on": "Staphylococcus hominis ATCC #25615", "test": "Microbial Time Kill Assay", "format": "cell-based", "conditions": "150 ppm AFC, 15 second contact time"}, "[9]": {"tested_on": "Staphylococcus saprophyticus ATCC #15305", "test": "Microbial Time Kill Assay", "format": "cell-based", "conditions": "150 ppm AFC, 15 second contact time"}, "[10]": {"tested_on": "Streptococcus pyogenes ATCC #19615", "test": "Microbial Time Kill Assay", "format": "cell-based", "conditions": "150 ppm AFC, 15 second contact time"}, "[11]": {"tested_on": "Staphylococcus aureus ATCC 6538", "test": "Bactericidal suspension test", "format": "cell-based"}, "[12]": {"tested_on": "Enterococcus faecium ATCC 10541", "test": "Bactericidal suspension test", "format": "cell-based"}, "[13]": {"tested_on": "Bacillus subtilis var. niger CIP 7 718", "test": "Sporicidal suspension test", "format": "cell-based", "method": "(§1) Sporicidal activity tests were performed using hypochlorous acid solution against Bacillus cereus CIP 7803, Bacillus subtilis CIP 7718, Clostridium sporogenes CIP 7939. Stock spore suspensions of Bacillus cereus CIP 7803, Bacillus subtilis CIP 7718, Clostridium sporogenes CIP 7939 were obtained from the Pasteur Institute's National Collection for the Culture of micro-organisms. Spore suspensions (1 ml) were added to 4 ml of sterile distilled water and 5 ml of hypochlorous acid solution at a range of concentrations at 20° C. After an exposure time of 60 minutes, 1 ml samples were neutralized using standard quench solution. All samples were serially diluted, plated out on selective agar, incubated aerobically or anaerobically at either 30° C. or 37° C. for 72 hours and colonies forming units counted."}, "[14]": {"tested_on": "Clostridium sporogenes CIP 7 939", "test": "Sporicidal suspension test", "format": "cell-based", "method": "as §1"}, "[15]": {"tested_on": "Adenovirus, type V", "test": "Virucidal suspension test", "format": "cell-based"}, "[16]": {"tested_on": "Poliovirus Enterovirus 1", "format": "cell-based"}, "[17]": {"tested_on": "Enterococcus faecium (VRE)", "test": "Carrier test", "format": "cell-based", "conditions": "<180 ppm, glass slide carriers"}, "[18]": {"tested_on": "Salmonella choleraesuis", "test": "Carrier test", "format": "cell-based", "conditions": "<180 ppm, glass slide carriers"}, "[19]": {"tested_on": "human norovirus", "test": "Norovirus suspension test", "format": "cell-based", "conditions": "20-200 mg/L, within a contact time of 20 seconds"}, "[20]": {"tested_on": "coliphage MS2", "test": "MS2 coliphage suspension test", "format": "cell-based", "conditions": "20-200 mg/L, within a contact time of 20 seconds"}, "[21]": {"test": "Ocular irritation study (Draize)", "format": "in vivo, New Zealand white rabbits", "conditions": "0.1 ml, 689.5 ppm AFC, conjunctival sac; Draize scoring days 1, 2 and 3 post dose", "method": "An eye irritation study was conducted on six healthy New Zealand white rabbits, free from evidence of ocular irritation and corneal abnormalities. The test article (0.1 ml hypochlorous acid, 689.5 ppm AFC) was placed into the conjunctival sac of one eye of each rabbit. The contralateral eye served as a control. The eyes were examined and scored by the Draize technique for any evidence of irritation or abnormalities of the cornea, on days 1, 2, and 3 post dose. The primary eye irritation score of each rabbit, each day was calculated. All eyes appeared normal at each observation period and there were no abnormal physical signs noted."}, "[22]": {"test": "Delayed dermal sensitization in guinea pig maximization test", "format": "in vivo", "conditions": "intradermal injection and occlusive patch; scored 24 and 48 hours after patch removal; solution 690 ppm AFC, hydrogel 500 ppm AFC"}, "[23]": {"test": "Acute oral toxicity", "conditions": "500 ppm AFC, single dose of 5 g/kg orally, observed up to 14 days"}, "[24]": {"tested_on": "Escherichia coli (strain CM891)", "test": "Bacterial mutagenicity", "conditions": "241-252 ppm AFC, absence and presence of liver S9 fraction"}, "[25]": {"tested_on": "MS2", "test": "MS2 coliphage virus carrier test", "conditions": "ceramic tiles and stainless steels, 1 min contact time, 20-200 ppm, infectivity"}, "[26]": {"conditions": "hypochlorous acid 40-180 ppm, suspension test"}},
  "data": [
    {"smiles": "OCl", "note": "[hypochlorous acid]", "values": [
      {"measurement": "% Reduction (% Kill)", "setting": "[1]", "result": ">99.999", "unit": "%"},
      {"measurement": "HOCl Solution Log10", "setting": "[1]", "result": "≤1"},
      {"measurement": "HOCl Solution Survivors", "setting": "[1]", "result": "<10"},
      {"measurement": "Log Reduction", "setting": "[1]", "result": "≥5.66"},
      {"measurement": "% Reduction (% Kill)", "setting": "[2]", "result": ">99.999", "unit": "%"},
      {"measurement": "HOCl Solution Log10", "setting": "[2]", "result": "≤1"},
      {"measurement": "HOCl Solution Survivors", "setting": "[2]", "result": "<10"},
      {"measurement": "Log Reduction", "setting": "[2]", "result": "≥5.08"},
      {"measurement": "% Reduction (% Kill)", "setting": "[3]", "result": ">99.999", "unit": "%"},
      {"measurement": "HOCl Solution Log10", "setting": "[3]", "result": "≤1"},
      {"measurement": "HOCl Solution Survivors", "setting": "[3]", "result": "<10"},
      {"measurement": "Log Reduction", "setting": "[3]", "result": "≥5.59"},
      {"measurement": "% Reduction (% Kill)", "setting": "[4]", "result": ">99.999", "unit": "%"},
      {"measurement": "HOCl Solution Log10", "setting": "[4]", "result": "≤1"},
      {"measurement": "HOCl Solution Survivors", "setting": "[4]", "result": "<10"},
      {"measurement": "Log Reduction", "setting": "[4]", "result": "≥5.70"},
      {"measurement": "% Reduction (% Kill)", "setting": "[5]", "result": ">99.999", "unit": "%"},
      {"measurement": "HOCl Solution Log10", "setting": "[5]", "result": "≤1"},
      {"measurement": "HOCl Solution Survivors", "setting": "[5]", "result": "<10"},
      {"measurement": "Log Reduction", "setting": "[5]", "result": "≥5.04"},
      {"measurement": "% Reduction (% Kill)", "setting": "[6]", "result": ">99.999", "unit": "%"},
      {"measurement": "HOCl Solution Log10", "setting": "[6]", "result": "≤1"},
      {"measurement": "HOCl Solution Survivors", "setting": "[6]", "result": "<10"},
      {"measurement": "Log Reduction", "setting": "[6]", "result": "≥5.11"},
      {"measurement": "% Reduction (% Kill)", "setting": "[7]", "result": ">99.999", "unit": "%"},
      {"measurement": "HOCl Solution Log10", "setting": "[7]", "result": "≤1"},
      {"measurement": "HOCl Solution Survivors", "setting": "[7]", "result": "<10"},
      {"measurement": "% Reduction (% Kill)", "setting": "[8]", "result": ">99.999", "unit": "%"},
      {"measurement": "HOCl Solution Log10", "setting": "[8]", "result": "≤1"},
      {"measurement": "HOCl Solution Survivors", "setting": "[8]", "result": "<10"},
      {"measurement": "Log Reduction", "setting": "[8]", "result": "≥5.68"},
      {"measurement": "% Reduction (% Kill)", "setting": "[9]", "result": ">99.999", "unit": "%"},
      {"measurement": "HOCl Solution Log10", "setting": "[9]", "result": "≤1"},
      {"measurement": "HOCl Solution Survivors", "setting": "[9]", "result": "<10"},
      {"measurement": "Log Reduction", "setting": "[9]", "result": "≥5.68"},
      {"measurement": "% Reduction (% Kill)", "setting": "[10]", "result": ">99.999", "unit": "%"},
      {"measurement": "HOCl Solution Log10", "setting": "[10]", "result": "≤1"},
      {"measurement": "HOCl Solution Survivors", "setting": "[10]", "result": "<10"},
      {"measurement": "Log Reduction", "setting": "[10]", "result": "≥5.53"},
      {"measurement": "contact time after which pass was achieved", "setting": "[11]; [26]", "result": 15, "unit": "s"},
      {"measurement": "Test Result (Log reduction)", "setting": "[11]; in 5 min., 20° C. ± 1° C.", "result": ">10^5 in 5 min."},
      {"measurement": "contact time after which pass was achieved", "setting": "[12]; [26]", "result": 15, "unit": "s"},
      {"measurement": "Test Result (Log reduction)", "setting": "[12]; in 5 min., 20° C. ± 1° C.", "result": ">10^5 in 5 min."},
      {"measurement": "contact time after which pass was achieved", "setting": "[13]; [26]", "result": 60, "unit": "min"},
      {"measurement": "Test Result (Log reduction)", "setting": "[13]; in 60 min., 20° C. ± 1° C.", "result": ">10^6 in 60 min."},
      {"measurement": "contact time after which pass was achieved", "setting": "[14]; [26]", "result": 60, "unit": "min"},
      {"measurement": "Test Result (Log reduction)", "setting": "[14]; in 60 min., 20° C. ± 1° C.", "result": ">10^6 in 60 min."},
      {"measurement": "Test Result (Log reduction)", "setting": "[15]", "result": ">10^4 in 15 min."},
      {"measurement": "contact time after which pass was achieved", "setting": "[15]", "result": 15, "unit": "min"},
      {"measurement": "contact time after which pass was achieved", "setting": "[16]; [26]", "result": 15, "unit": "min"},
      {"measurement": "Test Result (Log reduction)", "setting": "[16]; in 15 min., 20° C. ± 1° C.", "result": ">10^4 in 15 min."},
      {"measurement": "Time to achieve pass", "setting": "[17]", "result": 5, "unit": "min"},
      {"measurement": "Time to achieve pass", "setting": "[18]", "result": 2, "unit": "min"},
      {"measurement": "reduction of human norovirus", "setting": "[19]", "result": 3, "unit": "log10"},
      {"measurement": "reduction of MS2", "setting": "[20]", "result": 3, "unit": "log10"},
      {"measurement": "ocular irritation", "setting": "[21]", "result": "no ocular irritation"},
      {"measurement": "delayed dermal contact sensitization", "setting": "[22]", "result": "no evidence of causing a delayed dermal contact sensitization"},
      {"measurement": "mortality or evidence of toxicity", "setting": "[23]", "result": "no mortality or evidence of toxicity"},
      {"measurement": "mutagenic activity", "setting": "[24]", "result": "No evidence of mutagenic activity"},
      {"measurement": "inactivation of MS2", "setting": "[25]", "result": "> 3", "unit": "log10"}
    ]}
  ]
}
